Data taken from patent publication US20210309685A1, “AMINO ACID SALTS OF NICOTINIC ACID MONONUCLEOTIDE AND NICOTINAMIDE MONONUCLOETIDE AS ANTI-AGEING AGENTS” (Life Biosciences, Inc., priority 2018, published 2021).

Test system: COV434 cells
Experiment: NAD cell assay (NAD cycling method) in COV434 cells
Format: cell-based
Conditions: cellular NAD level, 200 uM, 4 hr, mole per mole versus parent NMN (NMN salts) or NaMN (NaMN salts), normalised to protein
Experimental: NAD levels were assayed based on the NAD cycling method of Zhu and Rand, PLoS One (2012), herein incorporated by reference. COV434 cells were maintained in 6 well plates and treated with the indicated compounds at a concentration of 200 uM for 4 hr. Media was removed, plates were washed in cold PBS and cells were scraped down in NAD extraction buffer containing 10 mM nicotinamide, 50 mM Tris HCl, 0.1% Triton X-100. Cells were homogenised by sonication for 5 seconds, and samples were centrifuged at 7,000 g for 5 min at 4 degrees. Aliquots were taken for later protein assay, and samples were then passed through 10 kDa amicon filters at 14,000 g, 30 min at 4 degrees to remove proteins from the sample. Each sample was measured in technical triplicate, with 25 μL sample added to 100 μL ADH cycling mix (0.2 mg/ml alcohol dehydrogenase enzyme, 2% ethanol, 100 mM Tris pH 8.5). Samples were allowed to cycle for 10 min at room temperature, followed by 50 μL addition of an MTT/PMS solution (0.1 mM phenazine methosulfate, 0.8 mM 3-(4,5-Dimethylthiazol-2-yl)-2,5-diphenyltetrazolium bromide), 100 mM Tris-HCl pH 8.5). Plates were then incubated for 15 min and absorbance was measured at 570 nm. NAD concentrations were extrapolated from a standard curve, and normalised to protein concentrations determined by BCA protein assay.
The adjusted fold increase is obtained through a direct comparison on a mole per mole basis between the compared salt and its parent counterpart. In other words, the instant salts derived from NMN parent molecule will only have their NAD activity level measured against NMN based on the same amount (mole) of salt tested in the cell. Likewise those salts derived from NaMN will have their NAD cell activity measured against NaMN. For example, the fold increase of compound I-002 is based on the NAD activity observed in a direct comparison for the same amount of mole of I-002 tested in the cell and that of the NMN parent. Similarly, the fold increase of I-003 is based on the direct comparison with NaMN.

Compound	FOLD increase adjusted for MW (compared to parent molecule)
O=C([O-])c1ccc[n+]([C@@H]2O[C@H](COP(=O)(O)O)[C@@H](O)[C@H]2O)c1 [Compound I-016, Bis((S)-1,3-Dicarboxypropan-1-aminium)-1-((2R,3R,4S,5R)-3,4-dihydroxy-5-((phosphonatooxy)methyl)tetrahydrofuran-2-yl)pyridin-1-ium-3-carboxylate]	2.29 fold
(S)-1-Carboxy-3-methylbutan-1-aminium 1-((2R,3R,4S,5R)-3,4-dihydroxy-5-((phosphonatooxy)methyl)tetrahydrofuran-2-yl)pyridin-1-ium-3-carboxylate [Compound I-058]	1.81 fold
NC(=O)c1ccc[n+]([C@@H]2O[C@H](COP(=O)([O-])O)[C@@H](O)[C@H]2O)c1 [Compound I-022, (S)-2-carboxypyrrolidin-1-ium ((2R,3S,4R,5R)-5-(3-carbamoylpyridin-1-ium-1-yl)-3,4-dihydroxytetrahydrofuran-2-yl)methyl phosphate]	1.33 fold
O=C([O-])c1ccc[n+]([C@@H]2O[C@H](COP(=O)(O)O)[C@@H](O)[C@H]2O)c1 [Compound I-001, (S)-1-Carboxy-2-methylpropan-1-aminium 1-((2R,3R,4S,5R)-5-(((hydrogenphosphonato)oxy)methyl)-3,4-dihydroxytetrahydrofuran-2-yl)pyridin-1-ium-3-carboxylate]	1.61 fold
(S)-1-Carboxy-3-methylbutan-1-aminium ((2R,3S,4R,5R)-5-(3-carbamoylpyridin-1-ium-1-yl)-3,4-dihydroxytetrahydrofuran-2-yl)methyl phosphate [Compound I-059]	1.80 fold
O=C([O-])c1ccc[n+]([C@@H]2O[C@H](COP(=O)(O)O)[C@@H](O)[C@H]2O)c1 [Compound I-026, Bis((S)-5-amino-5-carboxypentan-1-aminium)-1-((2R,3R,4S,5R)-3,4-dihydroxy-5-((phosphonatooxy)methyl)tetrahydrofuran-2-yl)pyridin-1-ium-3-carboxylate]	2.47 fold
O=C([O-])c1ccc[n+]([C@@H]2O[C@H](COP(=O)(O)O)[C@@H](O)[C@H]2O)c1 [Compound I-017, Bis((S)-1-Carboxy-2-(1H-indol-3-yl)ethanaminium)-1-((2R,3R,4S,5R)-3,4-dihydroxy-5-((phosphonatooxy)methyl)tetrahydrofuran-2-yl)pyridin-1-ium-3-carboxylate]	2.40 fold
NC(=O)c1ccc[n+]([C@@H]2O[C@H](COP(=O)([O-])O)[C@@H](O)[C@H]2O)c1 [Compound I-014, (S)-1-Carboxy-2-(1H-indol-3-yl)ethanaminium ((2R,3S,4R,5R)-5-(3-carbamoylpyridin-1-ium-1-yl)-3,4-dihydroxytetrahydrofuran-2-yl)methyl phosphate]	1.51 fold
O=C([O-])c1ccc[n+]([C@@H]2O[C@H](COP(=O)(O)O)[C@@H](O)[C@H]2O)c1 [Compound I-004, Bis((S)-1-Carboxy-2-methylpropan-1-aminium)-1-((2R,3R,4S,5R)-3,4-dihydroxy-5-((phosphonatooxy)methyl)tetrahydrofuran-2-yl)pyridin-1-ium-3-carboxylate]	1.99 fold
O=C([O-])c1ccc[n+]([C@@H]2O[C@H](COP(=O)(O)O)[C@@H](O)[C@H]2O)c1 [Compound I-006, (S)-1-Carboxy-2-(1H-imidazol-4-yl)ethanaminium 1-((2R,3R,4S,5R)-5-(((hydrogenphosphonato)oxy)methyl)-3,4-dihydroxytetrahydrofuran-2-yl)pyridin-1-ium-3-carboxylate]	1.64 fold
(1S,2S)-1-Carboxy-2-methylbutan-1-aminium ((2R,3S,4R,5R)-5-(3-carbamoylpyridin-1-ium-1-yl)-3,4-dihydroxytetrahydrofuran-2-yl)methyl phosphate [Compound I-062]	1.32 fold
(R)-1-Carboxy-2-methylpropan-1-aminium 1-((2R,3R,4S,5R)-3,4-dihydroxy-5-((phosphonatooxy)methyl)tetrahydrofuran-2-yl)pyridin-1-ium-3-carboxylate [Compound I-065]	1.54 fold
O=C([O-])c1ccc[n+]([C@@H]2O[C@H](COP(=O)(O)O)[C@@H](O)[C@H]2O)c1 [Compound I-011, (S)-1-Carboxy-2-(1H-indol-3-yl)ethanaminium 1-((2R,3R,4S,5R)-5-(((hydrogenphosphonato)oxy)methyl)-3,4-dihydroxytetrahydrofuran-2-yl)pyridin-1-ium-3-carboxylate]	2.35 fold
O=C([O-])c1ccc[n+]([C@@H]2O[C@H](COP(=O)(O)O)[C@@H](O)[C@H]2O)c1 [Compound I-015, Bis((S)-1-Carboxy-4-guanidinobutan-1-aminium)-1-((2R,3R,4S,5R)-3,4-dihydroxy-5-((phosphonatooxy)methyl)tetrahydrofuran-2-yl)pyridin-1-ium-3-carboxylate]	2.04 fold
O=C([O-])c1ccc[n+]([C@@H]2O[C@H](COP(=O)(O)O)[C@@H](O)[C@H]2O)c1 [Compound I-003, (S)-4-Amino-1-carboxy-4-oxobutan-1-aminium 1-((2R3R,4S,5R)-5-(((hydrogenphosphonato)oxy)methyl)-3,4-dihydroxytetrahydrofuran-2-yl)pyridin-1-ium-3-carboxylate]	1.89 fold
NC(=O)c1ccc[n+]([C@@H]2O[C@H](COP(=O)([O-])O)[C@@H](O)[C@H]2O)c1 [Compound I-002, (S)-1-Carboxy-2-methylpropan-1-aminium ((2R, 3S, 4R, 5R)-5-(3-carbamoylpyridin-1-ium-1-yl)-3,4-dihydroxytetrahydrofuran-2-yl)methyl phosphate]	1.24 fold
O=C(O)c1ccc[n+]([C@@H]2O[C@H](COP(=O)([O-])O)[C@@H](O)[C@H]2O)c1 [Compound I-020, Bis((1S,2R)-1-carboxy-2-hydroxypropan-1-aminium)-1-((2R,3R,4S,5R)-3,4-dihydroxy-5-((phosphonatooxy)methyl)tetrahydrofuran-2-yl)pyridin-1-ium-3-carboxylate]	1.52 fold
O=C(O)c1ccc[n+]([C@@H]2O[C@H](COP(=O)([O-])O)[C@@H](O)[C@H]2O)c1 [Compound I-027, (S)-1-carboxy-3-(methylthio)propan-1-aminium 1-((2R,3R,4S,5R)-5-(((hydrogenphosphonato)oxy)methyl)-3,4-dihydroxytetrahydrofuran-2-yl)pyridin-1-ium-3-carboxylate]	1.49 fold
O=C([O-])c1ccc[n+]([C@@H]2O[C@H](COP(=O)(O)O)[C@@H](O)[C@H]2O)c1 [Compound I-008, Bis((S)-1-Carboxy-2-(1H-imidazol-4-yl)ethanaminium)-1-((2R,3R,4S,5R)-3,4-dihydroxy-5-((phosphonatooxy)methyl)tetrahydrofuran-2-yl)pyridin-1-ium-3-carboxylate]	2.45 fold
O=C([O-])c1ccc[n+]([C@@H]2O[C@H](COP(=O)(O)O)[C@@H](O)[C@H]2O)c1 [Compound I-009, (S)-1-Carboxy-4-guanidinobutan-1-aminium 1-((2R,3R,4S,5R)-5-(((hydrogenphosphonato)oxy)methyl)-3,4-dihydroxytetrahydrofuran-2-yl)pyridin-1-ium-3-carboxylate]	2.03 fold
O=C([O-])c1ccc[n+]([C@@H]2O[C@H](COP(=O)(O)O)[C@@H](O)[C@H]2O)c1 [Compound I-005, Bis((S)-4-Amino-1-carboxy-4-oxobutan-1-aminium)-1-((2R,3R,4S,5R)-3,4-dihydroxy-5-((phosphonatooxy)methyl)tetrahydrofuran-2-yl)pyridin-1-ium-3-carboxylate]	3.05 fold
